Experiments:
[1] = tested on: monoclonal antibody 3A6-1 Mab; assay: competitive inhibition liquid phase RIA (monoclonal antibody specificity); type: binding, mouse; details: 50 ng inhibitor, 500 pg 3H-Avm B1a; for % ^3H-Tritium bound: antibody amount binding about 50% of label (Mab alone: 42)
Experimental: (§1) Specificity is determined by a competitive inhibition liquid phase RIA. The specificity is determined by contacting a known amount of labelled antigen (³H-Avm B1a) with constant amounts of other avermectins or ivermectin and then contacting this mixture with a constant amount of antibody specific for the labelled antigen. The concentration of antibody is an amount that is sufficient to bind about 50% of the labelled antigen employed in the assay.
as §1, with “B1a), 500 pg” for “B1a)”

[2] = detection of avermectin in mouse serum by competitive liquid phase RIA after intraperitoneal injection; type: in vivo, BALB/c mice; details: for Concentration per tube: serum at 1:10 dilution
Text: Monoclonal antibody specifically reactive with a common epitope or common epitopes contained within the compounds of the avermectin family and derivatives thereof are used serologically to identify and quantitate avermectins, including ivermectin, in animal body fluids and cell-free extracts. Body fluids include, but are not limited to, blood, serum, plasma, milk, urine, cerebrospinal fluid and the like. Cell-free extracts as used herein are defined as the fluids derived from disrupted cells. The avermectins can be identified and the concentration determined by a variety of immunoassays or serological assays which include, but are not limited to: immunoradiometric assays, employing labelled antibodies, Miles and Hales, Nature 219: 186 […] or a sandwich variant according to Addison and Hales, Hormone. Meta. Res. 3: 59 (1971); enzyme immunoassays, employing competitive assays with antigen-enzyme conjugates according to the method of Van Weeman and Schours, F.E.B.S. Lett. 15: 232 (1971) or enzyme-labelled antibody assays according to the procedure of Envall and Perlman, Immunochem. 8: 871 (1971) or a variant of the enzyme-labelled antibody assay which employs detection by a second antibody according to the process of Hammarstrom et al., Proc. Natl. Acad. Sci. USA 72: 1528 (1975) or non-competitive sandwich (ELISA) methods, see Nakamura et al., in Handbood of Experimental Immunology, Vol. 1, Immunochemistry, D. M. Weir, ed. 4th Edition (1986), Blackwell Scientific Publications, Oxford, pp. 27.1-27.20; or any other assay which will determine the concentration or presence of avermectin. The preferred assay is a competitive inhibition liquid phase radioimmuno assay (RIA). The avermectin concentration in animal body fluids is determined by diluting the fluid in an appropriate assay buffer. An appropriate assay buffer may include, but is not limited to, buffered saline, phosphate buffer, phosphate buffered saline, Dulbecco's phosphate buffered saline, Dulbecco's calcium-and-magnesium-free buffered saline and Tris buffer containing about 0.1 % CHAPSO with Tris-CHAPSO being preferred. The labelled antigen (³H-Avm) is diluted to a concentration of about 200 pg to about 700 pg, with about 500 pg being preferred, and contacted with an anti-avermectin monoclonal antibody at a concentration that will bind about 25% to about 75% of the labelled antigen, with about 50% being preferred. To the labelled antigen-antibody mixture is added an appropriate concentration or dilution of the unknown or sample containing avermectin or the standard containing a known amount of avermectin. The reactants are incubated at about 4° C to about 30° C, with about 25° C being preferred, for about 30 minutes to about 4 h, with about 2.5 h being preferred. All dilutions are made in the assay buffer and all determinations are made in duplicate. Non-antibody-bound radioactive avermectin is removed from the reaction mixture by chromatographic, precipitation, immunoprecipitation or adsorption techniques with adsorption of the unbound antigen onto dextran-coated activated charcoal being preferred. The dextran-coated charcoal is prepared by suspending activated charcoal, USP, at about 3% (w/v) in about 10 mM phosphate buffer, pH about 7.5, containing about 0.25% (w/v) dextran, about 60,000 to about 90,000 average mol. wt., with about 70,000 average mol. wt. being preferred. The dextran-coated activated charcoal is washed and resuspended in assay buffer and stored at a concentration of about 3%. About 1 ml of the dextran-coated activated charcoal suspension (dilution predetermined) is added to each sample and the samples are incubated for about 10 min at about 4° C. The charcoal is pelleted by centrifugation at about 3500 rpm for about 15 min. The supernatant quid is collected and the radioactivity counted in a liquid scintillation counter. […]

Compound | % Inhibition [1] [%] | % ^3H-Tritium bound [1] [%] | Concentration per tube ([2]; 15 min after 10 mg per Kg IP in sesame oil) [ng] | Concentration per tube ([2]; 30 min after 10 mg per Kg IP in sesame oil) [ng] | Concentration per tube ([2]; 60 min after 10 mg per Kg IP in sesame oil) [ng] | concentration at 0.25 h ([2]; mouse, serum, 10 mg/kg, 15 min after 10 mg per Kg IP in sesame oil, corrected for volume (50 µl) and dilution (1:10)) [ng/mL] | concentration at 0.5 h ([2]; mouse, serum, 10 mg/kg, 30 min after 10 mg per Kg IP in sesame oil, corrected for volume (50 µl) and dilution (1:10)) [ng/mL] | concentration at 1 h ([2]; mouse, serum, 10 mg/kg, 60 min after 10 mg per Kg IP in sesame oil, corrected for volume (50 µl) and dilution (1:10)) [ng/mL]
CCC(C)[C@H]1O[C@]2(C=C[C@@H]1C)C[C@@H]1C[C@@H](C/C=C(\C)[C@@H](O[C@H]3C[C@H](OC)[C@@H](O[C@H]4C[C@H](OC)[C@@H](O)[C@H](C)O4)[C@H](C)O3)[C@@H](C)/C=C/C=C3\CO[C@@H]4[C@H](O)C(C)=C[C@@H](C(=O)O1)[C@]34O)O2 (stereo partly drawn) [B1a, avermectin B1a] | 53 | 20 | 2.4 | 13 | 42 | 480 | 2600 | 8400
CC[C@H](C)[C@H]1O[C@@]2(C[C@@H]3C[C@@H](C/C=C(\C)[C@@H](O[C@H]4C[C@H](OC)[C@@H](O[C@H]5C[C@H](OC)[C@@H](O)[C@H](C)O5)[C@H](C)O4)[C@@H](C)/C=C/C=C4\CO[C@@H]5[C@H](O)C(C)=C[C@@H](C(=O)O3)[C@]45O)O2)C[C@H](O)[C@@H]1C [B2a, avermectin B2a] | 58 | 18 | – | – | – | – | – | –
22, 23-dihydroavermectin B₁ [Ivm] | 63 | 16 | – | – | – | – | – | –

— patent EP0450936A1, “Monoclonal antibody to avermectins” (MERCK & CO. INC., priority 1990, dated 1991)
